Measured values taken from US10271734B2, “Photoacoustic apparatus” (CANON KABUSHIKI KAISHA, priority 2015, dated 2019).

Legend:
[1] = Temporal change in blood ICG concentration after tail vein injection into a nude mouse (FIG. 2); assay type: in vivo; settings: ICG 20 nanomoles
Protocol: FIG. 2 is a diagram illustrating a temporal change in the concentration of the contrast agent 1012 in the blood when ICG (20 nanomoles) which is the contrast agent 1012 was injected into a tail vein of a nude mouse. The vertical axis of FIG. 2 represents the blood ICG concentration and the horizontal axis represents the time elapsed after the contrast agent 1012 was injected to the nude mouse.

[2] = J Clin Invest., 1960 April, 39(4): p. 592-600; cited from earlier work

CC1(C)C(/C=C/C=C/C=C/C=C2\N(CCCCS(=O)(=O)O)c3ccc4ccccc4c3C2(C)C)=[N+](CCCCS(=O)(=O)[O-])c2ccc3ccccc3c21 [ICG, Indocyanine green]
time after injection within which the concentration of ICG present in the blood decreases to a half or smaller [1]: ≤ 10 min
half-life of ICG in the blood [2]: approximately 3 minutes
